ChEMBL document CHEMBL5625277, “Systematical mutational analysis of teriparatide on anti-osteoporosis activity by alanine scanning” (Bioorg Med Chem Lett, 2024)

experiment: Cytotoxicity in pre-osteoblasts (unknown origin) assessed as cell death upto 5 uM by CCK8 assay; format: toxicity, cell-based; conditions: pre-osteoblast

Row | Compound | Activity
1 | CC[C@H](C)[C@H](NC(=O)[C@H](CCC(=O)O)NC(=O)[C@H](CO)NC(=O)[C@@H](NC(=O)[C@H](CO)NC(C)=O)C(C)C)C(=O)N[C@@H](CCC(N)=O)C(=O)N[C@@H](CC(C)C)C(=O)N[C@@H](CCSC)C(=O)N[C@@H](Cc1cnc[nH]1)C(=O)N[C@@H](CC(N)=O)C(=O)N[C@@H](CC(C)C)C(=O)NCC(=O)N[C@@H](CCCCN)C(=O)N[C@@H](Cc1cnc[nH]1)C(=O)N[C@@H](CC(C)C)C(=O)N[C@@H](CC(N)=O)C(=O)N[C@@H](CO)C(=O)N[C@@H](CCSC)C(=O)N[C@@H](CCC(=O)O)C(=O)N[C@@H](CCCNC(=N)N)C(=O)N[C@H](C(=O)N[C@@H](CCC(=O)O)C(=O)N[C@@H](Cc1c[nH]c2ccccc12)C(=O)N[C@@H](CC(C)C)C(=O)N[C@@H](CCCNC(=N)N)C(=O)N[C@@H](CCCCN)C(=O)N[C@@H](CCCCN)C(=O)N[C@@H](CC(C)C)C(=O)N[C@@H](CCC(N)=O)C(=O)N[C@@H](CC(=O)O)C(=O)N[C@@H](C)C(=O)N[C@@H](Cc1cnc[nH]1)C(=O)N[C@@H](CC(N)=O)C(=O)N[C@@H](Cc1ccccc1)C(N)=O)C(C)C | Non-Toxic
2 | CC[C@H](C)[C@H](NC(=O)[C@H](CCC(=O)O)NC(=O)[C@H](CO)NC(=O)[C@@H](NC(=O)[C@H](CO)NC(C)=O)C(C)C)C(=O)N[C@@H](CCC(N)=O)C(=O)N[C@@H](CC(C)C)C(=O)N[C@@H](CCSC)C(=O)N[C@@H](Cc1cnc[nH]1)C(=O)N[C@@H](CC(N)=O)C(=O)N[C@@H](CC(C)C)C(=O)NCC(=O)N[C@@H](CCCCN)C(=O)N[C@@H](Cc1cnc[nH]1)C(=O)N[C@@H](CC(C)C)C(=O)N[C@@H](CC(N)=O)C(=O)N[C@@H](CO)C(=O)N[C@@H](CCSC)C(=O)N[C@@H](CCC(=O)O)C(=O)N[C@@H](CCCNC(=N)N)C(=O)N[C@H](C(=O)N[C@@H](CCC(=O)O)C(=O)N[C@@H](Cc1c[nH]c2ccccc12)C(=O)N[C@@H](CC(C)C)C(=O)N[C@@H](CCCNC(=N)N)C(=O)N[C@@H](C)C(=O)N[C@@H](CCCCN)C(=O)N[C@@H](CC(C)C)C(=O)N[C@@H](CCC(N)=O)C(=O)N[C@@H](CC(=O)O)C(=O)N[C@H](C(=O)N[C@@H](Cc1cnc[nH]1)C(=O)N[C@@H](CC(N)=O)C(=O)N[C@@H](Cc1ccccc1)C(N)=O)C(C)C)C(C)C | Non-Toxic
3 | CC[C@H](C)[C@H](NC(=O)[C@H](CCC(=O)O)NC(=O)[C@H](CO)NC(=O)[C@@H](NC(=O)[C@H](CO)NC(C)=O)C(C)C)C(=O)N[C@@H](CCC(N)=O)C(=O)N[C@@H](CC(C)C)C(=O)N[C@@H](CCSC)C(=O)N[C@@H](Cc1cnc[nH]1)C(=O)N[C@@H](CC(N)=O)C(=O)N[C@@H](CC(C)C)C(=O)NCC(=O)N[C@@H](CCCCN)C(=O)N[C@@H](Cc1cnc[nH]1)C(=O)N[C@@H](CC(C)C)C(=O)N[C@@H](C)C(=O)N[C@@H](CO)C(=O)N[C@@H](CCSC)C(=O)N[C@@H](CCC(=O)O)C(=O)N[C@@H](CCCNC(=N)N)C(=O)N[C@H](C(=O)N[C@@H](CCC(=O)O)C(=O)N[C@@H](Cc1c[nH]c2ccccc12)C(=O)N[C@@H](CC(C)C)C(=O)N[C@@H](CCCNC(=N)N)C(=O)N[C@@H](CCCCN)C(=O)N[C@@H](CCCCN)C(=O)N[C@@H](CC(C)C)C(=O)N[C@@H](CCC(N)=O)C(=O)N[C@@H](CC(=O)O)C(=O)N[C@H](C(=O)N[C@@H](Cc1cnc[nH]1)C(=O)N[C@@H](CC(N)=O)C(=O)N[C@@H](Cc1ccccc1)C(N)=O)C(C)C)C(C)C | Non-Toxic
4 | CC[C@H](C)[C@H](NC(=O)[C@H](CCC(=O)O)NC(=O)[C@H](CO)NC(=O)[C@@H](NC(=O)[C@H](CO)NC(C)=O)C(C)C)C(=O)N[C@@H](CCC(N)=O)C(=O)N[C@@H](CC(C)C)C(=O)N[C@@H](CCSC)C(=O)N[C@@H](Cc1cnc[nH]1)C(=O)N[C@@H](CC(N)=O)C(=O)N[C@@H](C)C(=O)NCC(=O)N[C@@H](CCCCN)C(=O)N[C@@H](Cc1cnc[nH]1)C(=O)N[C@@H](CC(C)C)C(=O)N[C@@H](CC(N)=O)C(=O)N[C@@H](CO)C(=O)N[C@@H](CCSC)C(=O)N[C@@H](CCC(=O)O)C(=O)N[C@@H](CCCNC(=N)N)C(=O)N[C@H](C(=O)N[C@@H](CCC(=O)O)C(=O)N[C@@H](Cc1c[nH]c2ccccc12)C(=O)N[C@@H](CC(C)C)C(=O)N[C@@H](CCCNC(=N)N)C(=O)N[C@@H](CCCCN)C(=O)N[C@@H](CCCCN)C(=O)N[C@@H](CC(C)C)C(=O)N[C@@H](CCC(N)=O)C(=O)N[C@@H](CC(=O)O)C(=O)N[C@H](C(=O)N[C@@H](Cc1cnc[nH]1)C(=O)N[C@@H](CC(N)=O)C(=O)N[C@@H](Cc1ccccc1)C(N)=O)C(C)C)C(C)C | Non-Toxic
5 | CC[C@H](C)[C@H](NC(=O)[C@H](CCC(=O)O)NC(=O)[C@H](CO)NC(=O)[C@@H](NC(=O)[C@H](CO)NC(C)=O)C(C)C)C(=O)N[C@@H](CCC(N)=O)C(=O)N[C@@H](CC(C)C)C(=O)N[C@@H](CCSC)C(=O)N[C@@H](C)C(=O)N[C@@H](CC(N)=O)C(=O)N[C@@H](CC(C)C)C(=O)NCC(=O)N[C@@H](CCCCN)C(=O)N[C@@H](Cc1cnc[nH]1)C(=O)N[C@@H](CC(C)C)C(=O)N[C@@H](CC(N)=O)C(=O)N[C@@H](CO)C(=O)N[C@@H](CCSC)C(=O)N[C@@H](CCC(=O)O)C(=O)N[C@@H](CCCNC(=N)N)C(=O)N[C@H](C(=O)N[C@@H](CCC(=O)O)C(=O)N[C@@H](Cc1c[nH]c2ccccc12)C(=O)N[C@@H](CC(C)C)C(=O)N[C@@H](CCCNC(=N)N)C(=O)N[C@@H](CCCCN)C(=O)N[C@@H](CCCCN)C(=O)N[C@@H](CC(C)C)C(=O)N[C@@H](CCC(N)=O)C(=O)N[C@@H](CC(=O)O)C(=O)N[C@H](C(=O)N[C@@H](Cc1cnc[nH]1)C(=O)N[C@@H](CC(N)=O)C(=O)N[C@@H](Cc1ccccc1)C(N)=O)C(C)C)C(C)C | Non-Toxic
6 | CC[C@H](C)[C@H](NC(=O)[C@H](C)NC(=O)[C@H](CO)NC(=O)[C@@H](NC(=O)[C@H](CO)NC(C)=O)C(C)C)C(=O)N[C@@H](CCC(N)=O)C(=O)N[C@@H](CC(C)C)C(=O)N[C@@H](CCSC)C(=O)N[C@@H](Cc1cnc[nH]1)C(=O)N[C@@H](CC(N)=O)C(=O)N[C@@H](CC(C)C)C(=O)NCC(=O)N[C@@H](CCCCN)C(=O)N[C@@H](Cc1cnc[nH]1)C(=O)N[C@@H](CC(C)C)C(=O)N[C@@H](CC(N)=O)C(=O)N[C@@H](CO)C(=O)N[C@@H](CCSC)C(=O)N[C@@H](CCC(=O)O)C(=O)N[C@@H](CCCNC(=N)N)C(=O)N[C@H](C(=O)N[C@@H](CCC(=O)O)C(=O)N[C@@H](Cc1c[nH]c2ccccc12)C(=O)N[C@@H](CC(C)C)C(=O)N[C@@H](CCCNC(=N)N)C(=O)N[C@@H](CCCCN)C(=O)N[C@@H](CCCCN)C(=O)N[C@@H](CC(C)C)C(=O)N[C@@H](CCC(N)=O)C(=O)N[C@@H](CC(=O)O)C(=O)N[C@H](C(=O)N[C@@H](Cc1cnc[nH]1)C(=O)N[C@@H](CC(N)=O)C(=O)N[C@@H](Cc1ccccc1)C(N)=O)C(C)C)C(C)C | Non-Toxic
